Where a SMILES comes first, the peptide text is derived from it. The star is where a group is joined. Cbz = O=C(OCc1ccccc1)*; CH2F = FC*
Tests used:
[1] = system: endogenous PS2 cleavage in H4 human neuroglioma cells; test: Apoptotic cleavage of endogenous PS2 in untransfected H4 cells (staurosporine or etoposide), Western blot
Procedure: H4 human neuroglioma cells were treated with 1 μM STS for timed intervals indicated on the top panels and lysates were analyzed by Western blotting using αPS2Loop along with antibodies to poly(ADP-ribose) polymerase (PARP), CPP32, and HSP70. […] Cells were pre-treated with inhibitors for 1 hour, further incubated in the presence or absence of 2 μM STS (b) or 20 μM etoposide for 18 hours. and lysates were analyzed by Western blotting. […] (e) Dose-response curves of the effect of zVAD-fmk (Δ) and zDEVD-fmk (o) on STS-induced apoptotic cleavage of PS2. Relative amounts of 20 kDa PS2 fragments from the cells co-treated with 1 μM STS (18 hours) plus either zVAD-fmk or zDEVD-fmk were measured by the transmittance analysis of the Western blot as described (Bush, A. I., et al., Ann. Neurol. 32:57-65 (1992)). The amounts of 20 kDa fragment from the cells treated with STS alone were standardized as 100%. With the exception of (d) (4-20% gradient gel), all SDS-PAGE were performed using 16% gels.
(§2) For some experiments, protein quantitation, SDS-PAGE (4-20% or 16%) and Western blotting were carried out as described, supra, with the exception of using the lysis buffer (10 mM Tris-HCl [pH 7.4], 150 mM NaCl, 1% Triton X-100, 0.5% NP-40, 5 mM EDTA plus either 0.3% SDS or 1% Sarkosyl) with protease inhibitors, allowing for the efficient extraction of the 20 kDa C-terminal fragment from the detergent-resistant fractions.

endogenous PS1 cleavage = test: Apoptosis-associated cleavage of endogenous PS1 in H4 cells; assay type: cell-based, human; settings: STS- or etoposide-induced, FIGS. 11c and 11d
Procedure: FIG. 11. […] Inducible PS1 cells were generated similar to as described herein. High-(clone 1.22) and low-(clone 1.24) expressing clones were grown in the presence or absence of tetracycline for 24 hours. […] Identical samples used for FIG. 8 were stained with αPS1 Loop. […] Asterisk indicates non-specific bands.
Whether endogenous PS1 is cleaved by CP32-like proteases following induction of apoptosis was also tested.

[2] = system: full-length 54 kDa PS2 cleavage; test: Cleavage of full-length PS2 during etoposide-induced apoptosis in inducible H4 cells (N-terminal FLAG PS2); assay type: cell-based, human; settings: increasing concentrations of inhibitor, 20 μM etoposide; FIG. 8
Procedure: FIG. 8. Cleavage of full-length 54 kDa PS2 by a zVAD-sensitive protease activated during etoposide-induced apoptosis. Inducible H4 cells expressing PS2 containing N-terminal FLAG epitope were induced for 12 hours and further incubated with media containing 20 μM etoposide. Alternative (34 kDa NTF) and normal (f; 30 kDa) N-terminal cleavage products detected by anti-FLAG antibody and alternative (20K CTF) and endogenous plus normal C-terminal cleavage products (e/f) detected by αPS2Loop were indicated by arrows.
Thus, whether the alternative PS2-CTF was generated from full-length 54 kDa PS2 during apoptosis was tested. […] The alternative NTF was 34 kDa while the “normal” NTF, labeled as band f in the top panel of FIG. 8, was 30 kDa. The alternative PS2 cleavage fragments were first observed at 3 hours post-treatment with etoposide.

[3] = system: generation of the 20 kDa PS2-CTF; test: Generation of 20 kDa PS2-CTF in H4 cells overexpressing PS2, Western blot with αPS2Loop; settings: FIG. 7d; for generation of the 20 kDa PS2-CTF: cells overexpressing PS2, induced 24 h, inhibitor added at induction
Procedure: Aberrant 20 kDa PS2 C-terminal fragment (CTF) in transfected cells. (a) Detection of the endogenous PS2 CTF in human brain. […] (b) Detection of multiple PS2 CTFs in the inducible H4 cells overexpressing C-terminal epitope-tagged PS2 by Western blotting using αPS2Loop. […] (c) Selective localization of the 20 kDa CTF in the non-ionic detergent-resistant cellular fraction. Wild-type PS2 cells were induced for 48 hours, fractionated into detergent-insoluble/resistant (lane 2) and detergent soluble (lane 3) fractions and wash (lane 4), and then analyzed by Western blotting with αPS2Loop. Total SDS lysates are shown in lane 1. […] The zFA-fmk (cathepsin B inhibitor) was used as a control for fluoromethylketone (fmk) group. […] Inducible PS2 were grown in the presence (Uninduced, left panel) or absence (Induced, right panel) of tetracycline for 24 hours, and inhibitors or solvent (DMSO) were added at the time of the induction.
as §2

[4] = system: generation of alternative 14 kDa PS1-CTF; test: Generation of alternative 14 kDa PS1-CTF in inducible H4 cells overexpressing PS1; assay type: cell-based, human; settings: PS1-overexpressing cell lines
Procedure: FIG. 11. […] Inducible PS1 cells were generated similar to as described herein. High-(clone 1.22) and low-(clone 1.24) expressing clones were grown in the presence or absence of tetracycline for 24 hours. As similar to those shown for PS2, multiple PS1 CTFs were detected in the PS 1-overproducing cells, including 23 kDa endogenous PS1 CTF (arrow e′), transgene-derived normal cleavage product (arrow f′), and aberrant 14 kDa PS1 fragment. (b, c, d) Cleavage of endogenous PS1 CTF during STS-induced apoptosis. Identical samples used for FIG. 8 were stained with αPS1 Loop. PS1 CTF was further cleaved into smaller 14 kDa fragment during apoptotic process. […] Asterisk indicates non-specific bands.
The point mutations in the potential aspartate cleavage sites of PS2 (D326A and D329A) and control aspartate (D308A) were introduced into a PS2 open reading frame by site-directed mutagenesis using Muta-Gene phagemid kit (BioRad). The inducible construct encoding the full-length PS1 with 3′ FLAG epitope sequence was generated as described for PS2 herein. […]
Next, whether PS1, a closely related homologue of PS2, also undergoes alternative cleavage when overexpressed and/or during apoptosis was tested. […] However, in the clonal cell line expressing lower levels of PS1 (clone IF24), full-length PS1 and the normal CTF were predominantly detected while the alternative 14 kDa CTF fragment was not detectable.

[5] = system: polyubiquitinated HMW-PS2; test: Nickel affinity chromatography of PS2 modified with His-tagged ubiquitin, anti-PS2Loop blot; assay type: cell-based, human; settings: induced cells treated with ALLN
Procedure: (§1) FIG. 5. Polyubiquitination and proteasomal degradation of PS2. […] Detergent-soluble (Soluble) and detergent-resistant fractions (Insoluble) were prepared and analyzed by Western blotting. FIG. 5B) immunoprecipitation of ubiquitin-positive high molecular weight forms of PS2 (HMW-PS2) by anti-FLAG antibodies. […] FIG. SC) binding of PS2 modified with epitope-tagged ubiquitin (H6M-Ub) to nickel affinity columns. Plasmid pCW7 encoding wild-type (H6M-Ub) or pCW8 encoding dominant-negative ubiquitin (H6M-UbK48R) was transiently transfected into uninduced PS2 cells (clone WF2). […] Lysates were subjected to nickel affinity chromatography as described herein and bound materials were analyzed by Western blotting using anti-PS2Loop antibodies.
PS2 cells were transiently transfected with ubiquitin constructs either pCW7 (H6M-Ub) or pCW8 (H6M-UbK48R) using LipofectAMINE™ according to the manufacturer's instruction (LifeTtechnologies, Inc.). […] Samples were concentrated by freeze-drying, and PS2 immunoreactivity was detected by Western blotting using anti-PS2Loop antibodies.
To determine whether polyubiquitinated HMW-PS2 serves as a degradation intermediate for the full-length PS2, constructs encoding wild-type (H6M-Ub) and dominant-negative ubiquitin (H6M-UbK48R), tagged with poly((6X)-histidine) were transiently transfected into uninduced cells. […]

polyubiquitinated PS2 = test: Immunoprecipitation of ubiquitin-positive HMW-PS2 with anti-FLAG, anti-ubiquitin immunoblot; assay type: cell-based, human; settings: 50 μM ALLN; C-terminal FLAG PS2; FIG. 5B
Procedure: as §1
Protein samples were quantiated by the BCA protein assay kit (Pierce). SDS-PAGE was carried out using 4-20% gradient Tris-glycine gels under reducing conditions. Proteins were transferred to polyvinylidene difluoride membrane (Bio-Rad) using a semi-dry electrotransfer system (Hoefer). The blots were blocked with 5% non-fat dry milk in TBST (25 mM Tris (pH 7.6), 137 mM NaCl, 0.15% Tween 20) for 1.5 h, incbated primary antibodies (M2, 3 μg/ml; D-8, 1 to 1000; polyclonal anti-ubiquitin, 1 to 1000; Ubi-1, 1 to 1500) for 1.5 h, and secondary antibodies (horseradish perodixase-conjugated anti-mouse or rabbit antibodies, 1 to 5000) in TBST. […]

Row | Molecule | concentration equally effective in inhibiting apoptosis-induced cleavage of PS2 ([1]; 1 μM STS 18 h, relative amount of 20 kDa fragment, FIG. 9e) [µM] | normal processing of PS2 (generation of 25 kDa endogenous fragment) ([1]; H4 cells undergoing apoptosis) | STS-induced or etoposide-induced cleavage of PS2, PARP, and pro-CPP32 ([1]; H4 cells, 2 μM STS or 20 μM etoposide 18 h, FIG. 9b, c) | alternative cleavage of endogenous PS2 during staurosporine-induced or etoposide-induced apoptosis ([1]; H4 cells, inhibitor pre-treatment 1 h, 2 μM STS or 20 μM etoposide 18 h, FIGS. 9b-9d) | apoptosis-associated cleavage of endogenous PS1 (endogenous PS1 cleavage) | apoptosis-associated cleavage of endogenous PS1 (endogenous PS1 cleavage; listed as zVAD) | generation of both alternative PS2 cleavage products [2] | generation of the 20 kDa PS2-CTF [3] | generation of the 20 kDa PS2-CTF ([3]; listed as zVAD) | levels of the endogenous 25 kDa CTF, the 26 kDa transgene-derived CTF, or other PS2 species ([3]; cells overexpressing PS2) | generation of alternative 14 kDa PS1-CTF [4] | polyubiquitinated HMW-PS2 bound to nickel column ([5]; transfected with H6M-Ub, FIG. 5C lane 10) | polyubiquitinated HMW-PS2 bound to nickel column ([5]; transfected with dominant-negative H6M-UbK48R, FIG. 5C lane 12) | Ubiquitin-positive HMW-PS2 (polyubiquitinated PS2)
1 | COC(=O)C[C@H](NC(=O)[C@H](C)NC(=O)[C@@H](NC(=O)OCc1ccccc1)C(C)C)C(=O)CF [zVAD-fmk] (Cbz-Val-Ala-Asp(OMe)-CH2F) | 25 | no effect on normal processing of PS2 | Inhibition of STS-induced (b) or etoposide-induced (c) cleavage of PS2, PARP, and pro-CPP32 | specifically blocked | Inhibition of STS-induced (c) and etoposide-induced (d) PS1 cleavage | blocked | inhibited the generation of both alternative cleavage products | blocked | blocked the generation of the 20 kDa PS2-CTF | no effect | blocked | – | – | –
2 | N-acetyl-L-leucinal-L-norleucinal [ALLN] | – | – | – | – | – | – | – | – | – | – | – | abundant amounts of polyubiquitinated HMW-PS2 | a small amount of polyubiquitinated HMW-PS2 | significantly increased

— US6887983B2, “Purified 20 kDA presenilin 2 C-terminal fragment and methods of screening for compounds that inhibit proteolysis of presenilin 2” (The General Hospital Corporation, priority 1997, dated 2005)
